The assay relates to Influenza A virus. As to the kind of experiment: Antiviral activity against Influenza A virus (A/Puerto Rico/8/1934(H1N1)) NA-H374Y mutant infected in MDCK cells incubated for 1 hr by MTT assay. The format is functional, organism-based. In general terms: Tetrazolium assays rely on reduction of a dye to a coloured formazan, in cell work by metabolically active cells.

Where a SMILES comes first, the peptide text is derived from it. Bridges are numbered along the chain shown (N, C = ends). Roman numbers before positions name the chains, in order. Side-chain parts run from the residue outwards. The star is where a group is joined. Acetyl(2-naphthyl) = O=C(Cc1ccc2ccccc2c1)*; Fmoc = O=C(OCC1c2ccccc2-c2ccccc21)*

Experimental findings from ChEMBL document CHEMBL5131467, “Multivalent peptide dendrimers inhibit the fusion of viral-cellular membranes and the cellular NF-κB signaling pathway” (Eur J Med Chem, 2022) are described below.

What is called IC50 is the midpoint of a concentration-inhibition curve. `CCOC(=O)c1c(CSc2ccccc2)n(C)c2cc(Br)c(O)c(CN(C)C)c12.Cl` gave a half-inhibitory concentration (IC50) of 600 nM.
The compound `NCCCC[C@H](NC(=O)Cc1ccc2ccccc2c1)C(=O)N[C@@H](CCCCN)C(=O)N[C@@H](Cc1c[nH]c2ccccc12)C(=O)N[C@@H](CCCCN)C(=O)NCCCC[C@H](NC(=O)[C@H](CCCCN)NC(=O)[C@H](Cc1c[nH]c2ccccc12)NC(=O)[C@H](CCCCN)NC(=O)[C@H](CCCCN)NC(=O)Cc1ccc2ccccc2c1)C(=O)NCCCC[C@H](NC(=O)[C@H](CCCCNC(=O)[C@H](CCCCN)NC(=O)[C@H](Cc1c[nH]c2ccccc12)NC(=O)[C@H](CCCCN)NC(=O)[C@H](CCCCN)NC(=O)Cc1ccc2ccccc2c1)NC(=O)[C@H](CCCCN)NC(=O)[C@H](Cc1c[nH]c2ccccc12)NC(=O)[C@H](CCCCN)NC(=O)[C@H](CCCCN)NC(=O)Cc1ccc2ccccc2c1)C(=O)NCC(=O)O` (I: {Acetyl(2-naphthyl)}-KKWKK([Lys-Trp-Lys-Lys-Acetyl(2-naphthyl)])KG-OH / II: {Acetyl(2-naphthyl)}-KKWKK([Lys-Trp-Lys-Lys-Acetyl(2-naphthyl)]); amide I:6-II:C) showed an IC50 of 160 nM.
`NCCCC[C@H](NC(=O)OCC1c2ccccc2-c2ccccc21)C(=O)N[C@@H](CCCCN)C(=O)N[C@@H](Cc1c[nH]c2ccccc12)C(=O)N[C@@H](CCCCN)C(=O)NCCCC[C@H](NC(=O)[C@H](CCCCN)NC(=O)[C@H](Cc1c[nH]c2ccccc12)NC(=O)[C@H](CCCCN)NC(=O)[C@H](CCCCN)NC(=O)OCC1c2ccccc2-c2ccccc21)C(=O)NCCCC[C@H](NC(=O)[C@H](CCCCNC(=O)[C@H](CCCCN)NC(=O)[C@H](Cc1c[nH]c2ccccc12)NC(=O)[C@H](CCCCN)NC(=O)[C@H](CCCCN)NC(=O)OCC1c2ccccc2-c2ccccc21)NC(=O)[C@H](CCCCN)NC(=O)[C@H](Cc1c[nH]c2ccccc12)NC(=O)[C@H](CCCCN)NC(=O)[C@H](CCCCN)NC(=O)OCC1c2ccccc2-c2ccccc21)C(=O)NCC(=O)O` (I: Fmoc-KKWKK([Lys-Trp-Lys-Lys-Fmoc])KG-OH / II: Fmoc-KKWKK([Lys-Trp-Lys-Lys-Fmoc]); amide I:6-II:C) gave an IC50 of 540 nM.
